According to US12319752B2, “Heparin-binding cationic peptide self-assembling peptide amphiphiles useful against drug-resistant bacteria” (priority 2016, dated 2025):
Residues, ends and D or L forms follow the SMILES beside them. *: point of attachment. Palmitoyl = CCCCCCCCCCCCCCCC(=O)*

What was measured:
MDR E. coli = assay: Viable colony count assay (bactericidal effect, 4 h); assay type: cell-based, multidrug-resistant E. coli (MDR E. coli, ATCC #BAA-2471)
Protocol: (§1) The bactericidal effects of the peptides were examined using a viable colony count assay as well as the live/dead staining assay. For the viable colony count assay, bacteria were treated with peptides for 4 h and the resulting viable bacterial density of each sample was expressed by log10[CFU/mL]. For the Gram-positive bacteria tested, the decrease in bacterial density was dependent on the concentration of the ACA-PA (FIG. 8A). […] As for Gram-negative E. coli and MDR E. coli bacteria (FIG. 8B), the ACA nanorods, wherein the PA were added at a concentration above their CMC, had potent bactericidal effects. For example, the ACA nanorods at concentrations over 60 μM reduced the colony forming units of Gram-negative bacteria by about a five log unit reduction after 4 h compared with the untreated negative control sample.
(§2) In addition, ACA-PA were mixed with heparin at various weight ratios (1:1, 1:2, and 1:3 ACA-PA to heparin ratios) to block the Cardin motif groups on the PA. The ACA-PA concentration used to treat bacteria (MRSA and MDR E. coli) was a constant 80 μM and only varied in the concentration of heparin.
(§3) The viable count assay was performed to quantify the bactericidal activity of each peptide. Stock solutions of peptides were diluted in 3% TSB media to concentrations ranging from 20 μM to 100 μM immediately before experiments. Heparin-ACA-PA were also prepared by mixing the ACA-PA stock solution with heparin (sodium salt from porcine intestinal mucosa, Sigma, St. Louis, MO) to 1:1, 1:2 and 1:3 weight ratios in water, and a final concentration of ACA-PA in the heparin-ACA-PA at each heparin weight ratio was adjusted to 80 μM for each experiment. The bacteria (10^6 CFU/mL) were incubated with peptides at 37° C. for 4 h. After incubation, serial dilutions of samples were plated on TSB agar and then incubated at 37° C. overnight. The colonies from each spot were manually counted, and the CFU number for each sample was determined. Experiments were conducted in triplicate and results were expressed as the log 10 values of the CFU number in each sample. Data were expressed by stand error of the mean (±S.E.M.) and N=3, *p<0.05 compared with control samples and #p<0.05 compared with bacteria treated with 40 μM of ACA-PA.

S. aureus = assay: as above; assay type: cell-based, Staphylococcus aureus (ATCC #25923)
Protocol: as §1, §3

MRSA = assay: as above; assay type: cell-based, methicillin-resistant S. aureus (MRSA, ATCC #43300)
Protocol: as §1, §2, §3

[1] = Critical micelle concentration (CMC) by Nile Red fluorescence; assay type: physicochemical; conditions: in water, Nile Red dye
Excerpt: First, the solvatochromic probe Nile Red was used to examine the threshold concentrations for the spontaneous aggregation induced by hydrophobic collapse of peptides. Once the supramolecular structures of PA self-assemble in water at their CMC, the Nile Red dye can be solubilized in the hydrophobic cores of the PA assemblies, displaying an enhanced fluorescent intensity. Consequently, the fluorescent intensity maxima of Nile Red were at the emission wavelength of 630 nm in the solutions of CVK-PA and ACA-PA, whereas the emission wavelength was located at 660 nm in the Bi-Cardin peptide solutions (FIG. 4A-4D). […] To estimate the CMC of each peptide, the corrected fluorescent intensity (If,corrected) of Nile Red at its emission wavelength for each peptide solution was calculated using equation: If,corrected=If,sample−If,water, where If,sample is the average of the triplicate fluorescent intensity measurements in the sample and If,water is the fluorescent intensity of Nile Red in water without the peptide. The measurements of the corrected fluorescent intensity were plotted against the log 10 values of concentration of each peptide, then the CMC value was determined at the point of intersection of the plot of log peptide concentration and fluorescent intensity of Nile Red.

SMILES: CCCCCCCCCCCCCCCC(=O)N[C@H](C(=O)N[C@H](C(=O)N[C@H](C(=O)N[C@H](C(=O)N[C@@H](CCCCN)C(=O)N[C@@H](CCCCN)C(=O)N[C@@H](CCCCN)C(=O)N[C@@H](CCCCN)C(=O)NCC(=O)N[C@@H](C)C(=O)N[C@@H](CCCCN)C(=O)N[C@@H](CCCCN)C(=O)N[C@@H](C)C(=O)N[C@@H](CCCNC(=N)N)C(=O)N[C@@H](C)C(=O)N[C@@H](C)C(=O)N[C@@H](CCCCN)C(=O)N[C@@H](CCCCN)C(=O)N[C@@H](C)C(=O)N[C@@H](CCCNC(=N)N)C(=O)N[C@@H](C)C(=O)O)C(C)C)C(C)C)C(C)C)C(C)C [ACA-PA, C16-V4K4G(AKKARA)2 (SEQ ID NO: 7)] (Palmitoyl-VVVVKKKKGAKKARAAKKARA-OH; N-terminus and C-terminus assumed)
- decrease in bacteria density (MDR E. coli; MDR E. coli (Gram-negative), 60 to 100 μM): 10,000 fold
- number of viable bacteria colonies after mixing with heparin (MDR E. coli; MDR E. coli, 80 μM ACA-PA, 1:1, 1:2, 1:3 ACA-PA to heparin weight ratios): positively proportional to the amount of heparin added
- toxicity towards bacteria after mixing with heparin (MDR E. coli; MDR E. coli, 80 μM ACA-PA, 1:3 ACA-PA to heparin weight ratio, 4 h): no toxicity towards bacteria
- reduction in bacteria density (MDR E. coli; MDR E. coli, concentrations lower than CMC, 4 h): no significant reduction in Gram-negative bacteria density
- reduction of colony forming units (MDR E. coli; MDR E. coli, over 60 μM, 4 h, vs untreated control): five
- decrease in bacteria density (S. aureus; S. aureus (Gram-positive), 60 to 100 μM): ~100 fold
- decline in bacteria density (S. aureus; S. aureus, over 80 μM, 4 h): 100 fold
- decrease of colony forming units (S. aureus; S. aureus, over 80 μM, 4 h): two
- decrease in bacteria density (MRSA; MRSA (Gram-positive), 60 to 100 μM): ~100 fold
- number of viable bacteria colonies after mixing with heparin (MRSA; MRSA, 80 μM ACA-PA, 1:1, 1:2, 1:3 ACA-PA to heparin weight ratios): positively proportional to the amount of heparin added
- toxicity towards bacteria after mixing with heparin (MRSA; MRSA, 80 μM ACA-PA, 1:3 ACA-PA to heparin weight ratio, 4 h): no toxicity towards bacteria
- decline in bacteria density (MRSA; MRSA, over 80 μM, 4 h): 100 fold
- decrease of colony forming units (MRSA; MRSA, over 80 μM, 4 h): two
- CMC [1]: 45.7 µM
